# According to BindingDB's records for doi:10.1021/cc9000357 (University of Alabama At Birmingham, 2009):
# pIC50: −log10 of the molar value.
# How the values were obtained:
# [1] = biological target: T1, Probable nicotinate-nucleotide adenylyltransferase (Bacillus anthracis (strain CDC 684 / NRRL 3495), UniProt C3L5T6); assay: NaMNAT HPLC Enzyme Assay; details: pH 7.5; 0 °C
# T1 sequence (C3L5T6 whole entry): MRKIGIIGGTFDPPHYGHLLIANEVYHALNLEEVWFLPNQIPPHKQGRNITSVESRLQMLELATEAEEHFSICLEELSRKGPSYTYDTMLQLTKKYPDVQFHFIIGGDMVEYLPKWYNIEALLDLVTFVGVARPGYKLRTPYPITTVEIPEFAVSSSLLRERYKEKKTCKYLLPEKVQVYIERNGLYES
# Source text: Inhibitory concentration of the compound measured against B. anthracis Nicotinic acid mononucleotide adenylyltransferase (NaMNAT)using HPLC Enzyme Assay
# [2] = biological target: T2, NH(3)-dependent NAD(+) synthetase (Bacillus anthracis, UniProt Q81RP3); assay: NADs HPLC Enzyme Assay; details: pH 8.5; 4 °C
# T2 sequence (Q81RP3 whole entry): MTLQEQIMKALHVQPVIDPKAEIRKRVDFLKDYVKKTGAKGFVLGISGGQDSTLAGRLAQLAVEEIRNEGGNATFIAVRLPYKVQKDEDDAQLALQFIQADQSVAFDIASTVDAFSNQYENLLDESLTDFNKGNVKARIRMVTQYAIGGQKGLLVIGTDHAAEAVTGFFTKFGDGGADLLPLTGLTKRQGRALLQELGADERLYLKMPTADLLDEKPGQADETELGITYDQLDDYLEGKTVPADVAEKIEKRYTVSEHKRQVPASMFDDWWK
# Source text: Inhibitory concentration of the compound measured against B. anthracis Nicotinamide adenine dinucleotide synthetase (NADs) using HPLC Enzyme Assay
Structure (SMILES),pIC50 [1],pIC50 [2]
"O=C(Nc1ccc(NS(=O)(=O)c2ccc(Cl)c(Cl)c2)cc1)Nc1cccc([N+](=O)[O-])c1 [1-[4-[(3,4-dichlorophenyl)sulfonylamino]phenyl]-3-(3-nitrophenyl)urea]",3.42,4.02
"O=C(Nc1ccc(NS(=O)(=O)c2ccc(Cl)c(Cl)c2)cc1)Nc1ccc([N+](=O)[O-])cc1 [1-[4-[(3,4-dichlorophenyl)sulfonylamino]phenyl]-3-(4-nitrophenyl)urea]",5.14,4.49
O=C(Nc1ccc([N+](=O)[O-])cc1)Nc1ccc(S(=O)(=O)Nc2ccc(Cl)c(Cl)c2)cc1,5.70,5.19
"O=C(Nc1ccc(NS(=O)(=O)c2ccc(Cl)c(Cl)c2)cc1)Nc1ccccc1[N+](=O)[O-] [1-[4-[(3,4-dichlorophenyl)sulfonylamino]phenyl]-3-(2-nitrophenyl)urea]",< 3.22,3.35
O=C(Nc1ccc(NS(=O)(=O)c2ccc(F)cc2)cc1)Nc1ccc([N+](=O)[O-])cc1 [1-[4-[(4-fluorophenyl)sulfonylamino]phenyl]-3-(4-nitrophenyl)urea],3.43,
Nc1ccc(S(=O)(=O)Nc2ccc(NC(=O)Nc3ccccc3[N+](=O)[O-])cc2)cc1 [1-[4-[(4-aminophenyl)sulfonylamino]phenyl]-3-(2-nitrophenyl)urea],< 3.82,4.77
O=C(Nc1ccc(NS(=O)(=O)c2ccc(C(F)(F)F)cc2)cc1)Nc1cccc([N+](=O)[O-])c1 [1-(3-nitrophenyl)-3-[4-[[4-(trifluoromethyl)phenyl]sulfonylamino]phenyl]urea],,3.84
